Entries after “also recorded” stand apart in the source; their conditions may differ.
Legend:
[1] = tested on: mouse psoriasis model induced by 5% IMQ; experiment: Neutrophil infiltration (Ly6G+ cells, immunofluorescence) of mouse psoriasis model; format: in vivo; settings: 5% IMQ model
[2] = tested on: mouse psoriasis model induced by 5% IMQ; experiment: PASI score of mouse psoriasis model induced by imiquimod under drug intervention; format: in vivo; settings: for PASI score: n = 8, mean ± SD
Source text: 16 C57BL/6 mice, with half male and half female were purchased from the Experimental Animal Center of Nanjing Medical University, wherein weights of the mice ranged from 18 g to 20 g. Back hair of the mice was shaved off, and then the mice were randomly divided into 2 groups (8 mice in each group) according to male and female genders. Before experiment, the mice were placed in a quiet environment kept away from strong light for 3 days to adapt to the environment, a ratio of an illuminating time to a dark time was 1:1, a room temperature was controlled at 25° C., a humidity was 55%, and the mice could eat and drink freely. 62.5 mg of 5% (0.1 g:2 g) imiquimod ointment (Zhuhai United Laboratories Co., Ltd.) was continuously applied to back skins of the mice for 6 days to induce a psoriasis-like lesion, while the same dose of vaseline ointment was given to the control group.
The clinical symptom of the mouse psoriasis model was evaluated by a PASI scoring standard from three indicators of erythema, scale and infiltration thickening. The scores ranged from 0 point to 4 points, and a total score was obtained by adding scores of the three indicators. The PASI scoring standard was as follows: 0 point referred to no symptom; 1 point referred to a mild degree; 2 points referred to a moderate degree; 3 points referred to a severe degree; and 4 points referred to an extremely severe degree. The PASI evaluation was conducted daily before the IMQ ointment was applied.
C57BL/6 mice, with half male and half female were purchased from the Experimental Animal Center of Nanjing Medical University, wherein weights of the mice ranged from 18 g to 20 g. The C57BL/6 mice were randomly divided into 4 groups (8 mice in each group). Mouse psoriasis models were established as described in Embodiment 2 (1). […]
Back skins of the mice were photographed and recorded on the 1st, 3rd and 5th days after modeling.

[3] = subcutaneous injection, 5% IMQ model

For O=c1cc(-c2ccc(O)cc2)oc2cc(O)c(O)c(O)c12 [Scutellarein], the neutrophil infiltration [1] was “obviously reduce”, the PASI score ([2]; day 1, 0.1‰ scutellarein s.c. 100 μL twice a day + imiquimod) was 0.0 ± 0.0 and the PASI score ([2]; day 1, 0.2‰ scutellarein s.c. 100 μL twice a day + imiquimod) was 0.0 ± 0.0. For the same compound, the PASI score ([2]; day 2, 0.1‰ scutellarein s.c. 100 μL twice a day + imiquimod) was 0.5 ± 0.6, the PASI score ([2]; day 2, 0.2‰ scutellarein s.c. 100 μL twice a day + imiquimod) was 0.0 ± 0.0 and the PASI score ([2]; day 3, 0.1‰ scutellarein s.c. 100 μL twice a day + imiquimod) was 1.8 ± 0.9. The PASI score ([2]; day 3, 0.2‰ scutellarein s.c. 100 μL twice a day + imiquimod) was 0.5 ± 0.6, the PASI score ([2]; day 4, 0.1‰ scutellarein s.c. 100 μL twice a day + imiquimod) was 1.8 ± 1.0 and the PASI score ([2]; day 4, 0.2‰ scutellarein s.c. 100 μL twice a day + imiquimod) was 0.8 ± 0.9. For the same compound, the PASI score ([2]; day 5, 0.1‰ scutellarein s.c. 100 μL twice a day + imiquimod) was 3.0 ± 0.8, the PASI score ([2]; day 5, 0.2‰ scutellarein s.c. 100 μL twice a day + imiquimod) was 2.0 ± 1.2 and the “occurrence of the lesion induced by imiquimod” value [2, 3] was “delay occurrence of the lesion”. For the same compound, the “psoriasis-like lesion on the back skins of the mice (appearance)” value [2, 3] was “could relieve the psoriasis-like lesion; also recorded: can improve the lesion; also recorded: significantly relieve”.
